Experimental data: patent US20090312280A1

Columns and labels:
[1] = biological target: T1, Chk2 (Homo sapiens, UniProt O96017); assay: cell-based or ex vivo assays of CHK2 activity
[2] = test system: wild type p53 HCT116 cells; assay: cell survival assay, transiently transfected p53 wild type; assay type: cell-based, human; conditions: Compound 1 + gemcitabine compared with gemcitabine alone
Method: (§1) The cytotoxic effect induced by the combination treatment in HUVEC cells is negligible compared with the cytotoxicity induced by the same treatment in tumor cells. […] A cell survival assay was also performed in HTC116 cells (human colon carcinoma) that were transiently transfected with a plasmid containing either p53 wild type or mutant.

[3] = test system: HUVEC cells; assay: cell survival assay in normal cells; assay type: cell-based
Method: as §1

[4] = in vivo; conditions: mouse
[5] = biological target: Rsk3 (Homo sapiens, UniProt Q15349); assay: biochemical
[6] = biological target: EGFR2 (Homo sapiens, UniProt P35968); assay: biochemical kinase screening assay; conditions: read-out: IC50 (nM), given as Ki
[7] = biological target: EphB4 (Homo sapiens, UniProt P54760); assay: biochemical kinase screening assay
[8] = biological target: Axl (Homo sapiens, UniProt P30530); assay: biochemical kinase screening assay
[9] = test system: G2 checkpoint induced by camptothecin (Histone H3 phosphorylation on Ser10); assay: Histone H3 phosphorylation assay (G2 checkpoint abrogation); assay type: cell-based; conditions: read-out: EC50, abrogation of G2 checkpoint (increase in Histone H3 phosphorylation on Ser10)
[10] = biological target: Fms (Homo sapiens, UniProt P07333); assay: biochemical kinase screening assay
[11] = biological target: T1, Chk2; assay: biochemical kinase screening assay; conditions: read-out: IC50 (nM), given as Ki
[12] = test system: K562 (Leukemia); assay: cell survival / MTT combination cytotoxicity; assay type: cell-based, human; conditions: Homo sapiens
[13] = biological target: Rsk1 (Homo sapiens, UniProt Q15418); assay: biochemical kinase screening assay
[14] = maximum tolerated dose by mean body weight loss; conditions: in vivo
[15] = test system: p53-defective human cancer cell lines; assay: cell survival / MTT assays, cell line not named; assay type: cell-based
[16] = biological target: PKBa (Homo sapiens, UniProt P31749); assay: biochemical kinase screening assay
[17] = biological target: Yes (Homo sapiens, UniProt P07947); assay: biochemical kinase screening assay
[18] = biological target: FGFR3 (Homo sapiens, UniProt P22607); assay: biochemical kinase screening assay
[19] = biological target: PRK2 (Homo sapiens, UniProt Q16513); assay: biochemical kinase screening assay
[20] = biological target: Flt3 (Homo sapiens, UniProt P36888); assay: biochemical kinase screening assay
[21] = test system: Colo205 (Colon); assay: cell survival / MTT combination cytotoxicity; assay type: cell-based, human; conditions: Homo sapiens, COLO 205
[22] = test system: PC-3 (Prostate); assay: cell survival / MTT combination cytotoxicity; assay type: cell-based, human; conditions: Homo sapiens
[23] = biological target: Abl(m) (Mus musculus, UniProt P00520); assay: biochemical kinase screening assay
[24] = biological target: TrkA (Homo sapiens, UniProt P04629); assay: biochemical kinase screening assay
[25] = biological target: PDGFRa (Homo sapiens, UniProt P16234); assay: biochemical kinase screening assay
[26] = biological target: cSRC (Homo sapiens, UniProt P12931); assay: biochemical kinase screening assay
[27] = biological target: Rsk2 (Homo sapiens, UniProt P51812); assay: biochemical kinase screening assay
[28] = test system: mutant p53 HCT116 cells; assay: cell survival assay, transiently transfected p53 mutant; assay type: cell-based, human; conditions: Compound 1 + gemcitabine compared with gemcitabine alone
Method: as §1

T1 sequence (O96017 whole entry): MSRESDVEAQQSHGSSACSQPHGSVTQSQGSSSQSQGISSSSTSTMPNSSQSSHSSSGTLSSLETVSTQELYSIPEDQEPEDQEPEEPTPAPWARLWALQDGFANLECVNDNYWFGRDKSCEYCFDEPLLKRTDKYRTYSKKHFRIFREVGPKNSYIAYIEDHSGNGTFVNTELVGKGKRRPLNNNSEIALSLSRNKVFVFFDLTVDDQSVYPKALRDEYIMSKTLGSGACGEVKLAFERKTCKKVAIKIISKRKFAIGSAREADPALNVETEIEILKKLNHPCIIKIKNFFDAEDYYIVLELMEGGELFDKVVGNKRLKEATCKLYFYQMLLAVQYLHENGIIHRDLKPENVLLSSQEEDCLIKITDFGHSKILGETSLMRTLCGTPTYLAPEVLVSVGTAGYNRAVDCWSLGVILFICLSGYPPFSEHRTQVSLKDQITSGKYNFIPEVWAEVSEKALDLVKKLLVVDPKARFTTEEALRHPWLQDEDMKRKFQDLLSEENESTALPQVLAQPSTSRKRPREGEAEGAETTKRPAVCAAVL
Chain of Axl (P30530 26-894): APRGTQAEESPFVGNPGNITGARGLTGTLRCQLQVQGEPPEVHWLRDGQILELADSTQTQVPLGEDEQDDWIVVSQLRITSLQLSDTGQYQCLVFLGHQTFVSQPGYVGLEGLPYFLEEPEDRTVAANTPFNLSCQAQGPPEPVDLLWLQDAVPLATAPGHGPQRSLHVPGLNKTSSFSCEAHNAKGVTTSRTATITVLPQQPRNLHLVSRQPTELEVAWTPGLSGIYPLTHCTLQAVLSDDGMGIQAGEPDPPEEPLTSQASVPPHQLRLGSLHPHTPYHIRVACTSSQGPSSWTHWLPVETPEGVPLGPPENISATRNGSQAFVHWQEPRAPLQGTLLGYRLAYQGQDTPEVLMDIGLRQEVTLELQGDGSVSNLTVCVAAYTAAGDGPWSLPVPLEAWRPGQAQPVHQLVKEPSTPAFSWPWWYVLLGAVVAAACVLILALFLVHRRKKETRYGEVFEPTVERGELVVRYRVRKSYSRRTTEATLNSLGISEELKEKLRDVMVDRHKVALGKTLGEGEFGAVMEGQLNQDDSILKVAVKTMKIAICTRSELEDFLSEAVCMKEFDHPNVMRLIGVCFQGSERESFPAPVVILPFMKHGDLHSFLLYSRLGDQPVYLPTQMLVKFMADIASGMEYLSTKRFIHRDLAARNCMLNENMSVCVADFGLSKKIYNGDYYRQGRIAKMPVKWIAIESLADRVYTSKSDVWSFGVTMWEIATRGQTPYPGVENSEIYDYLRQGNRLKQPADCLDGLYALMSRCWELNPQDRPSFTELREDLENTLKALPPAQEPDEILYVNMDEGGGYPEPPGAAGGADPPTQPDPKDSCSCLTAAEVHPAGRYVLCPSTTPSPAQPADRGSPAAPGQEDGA
Chain of TrkA (P04629 33-796): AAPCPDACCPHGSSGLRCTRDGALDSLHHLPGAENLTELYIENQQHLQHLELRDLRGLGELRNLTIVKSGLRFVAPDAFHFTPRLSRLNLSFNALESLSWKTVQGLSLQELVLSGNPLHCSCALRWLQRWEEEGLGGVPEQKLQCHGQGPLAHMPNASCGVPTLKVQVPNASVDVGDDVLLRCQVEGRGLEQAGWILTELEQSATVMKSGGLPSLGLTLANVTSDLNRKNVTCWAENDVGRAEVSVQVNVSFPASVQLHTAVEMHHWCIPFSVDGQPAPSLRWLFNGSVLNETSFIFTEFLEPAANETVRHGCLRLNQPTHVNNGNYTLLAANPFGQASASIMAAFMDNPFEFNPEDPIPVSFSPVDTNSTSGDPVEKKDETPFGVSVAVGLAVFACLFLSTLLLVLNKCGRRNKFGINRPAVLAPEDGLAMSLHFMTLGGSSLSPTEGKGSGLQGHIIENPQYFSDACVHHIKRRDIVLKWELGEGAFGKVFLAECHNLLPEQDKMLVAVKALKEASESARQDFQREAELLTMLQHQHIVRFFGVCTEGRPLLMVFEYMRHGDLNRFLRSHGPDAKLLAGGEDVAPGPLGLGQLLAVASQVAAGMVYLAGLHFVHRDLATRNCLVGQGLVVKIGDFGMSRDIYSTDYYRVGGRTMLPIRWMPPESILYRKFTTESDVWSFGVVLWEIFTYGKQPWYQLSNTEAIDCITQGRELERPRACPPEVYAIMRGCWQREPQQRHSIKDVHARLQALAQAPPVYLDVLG
Chain of PKBa (P31749 whole entry): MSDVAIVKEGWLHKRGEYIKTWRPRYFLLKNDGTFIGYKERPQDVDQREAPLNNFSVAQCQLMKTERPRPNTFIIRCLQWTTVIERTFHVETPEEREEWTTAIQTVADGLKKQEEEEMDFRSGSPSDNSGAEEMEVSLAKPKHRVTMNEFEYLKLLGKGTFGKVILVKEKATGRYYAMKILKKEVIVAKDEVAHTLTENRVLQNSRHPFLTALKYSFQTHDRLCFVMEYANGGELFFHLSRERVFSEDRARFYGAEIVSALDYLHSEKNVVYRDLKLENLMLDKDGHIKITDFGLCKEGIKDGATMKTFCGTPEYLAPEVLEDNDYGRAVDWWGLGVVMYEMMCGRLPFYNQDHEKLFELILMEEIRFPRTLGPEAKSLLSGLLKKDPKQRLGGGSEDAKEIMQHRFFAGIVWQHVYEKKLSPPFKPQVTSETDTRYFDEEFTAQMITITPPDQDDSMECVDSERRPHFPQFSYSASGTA
Chain of EphB4 (P54760 16-987): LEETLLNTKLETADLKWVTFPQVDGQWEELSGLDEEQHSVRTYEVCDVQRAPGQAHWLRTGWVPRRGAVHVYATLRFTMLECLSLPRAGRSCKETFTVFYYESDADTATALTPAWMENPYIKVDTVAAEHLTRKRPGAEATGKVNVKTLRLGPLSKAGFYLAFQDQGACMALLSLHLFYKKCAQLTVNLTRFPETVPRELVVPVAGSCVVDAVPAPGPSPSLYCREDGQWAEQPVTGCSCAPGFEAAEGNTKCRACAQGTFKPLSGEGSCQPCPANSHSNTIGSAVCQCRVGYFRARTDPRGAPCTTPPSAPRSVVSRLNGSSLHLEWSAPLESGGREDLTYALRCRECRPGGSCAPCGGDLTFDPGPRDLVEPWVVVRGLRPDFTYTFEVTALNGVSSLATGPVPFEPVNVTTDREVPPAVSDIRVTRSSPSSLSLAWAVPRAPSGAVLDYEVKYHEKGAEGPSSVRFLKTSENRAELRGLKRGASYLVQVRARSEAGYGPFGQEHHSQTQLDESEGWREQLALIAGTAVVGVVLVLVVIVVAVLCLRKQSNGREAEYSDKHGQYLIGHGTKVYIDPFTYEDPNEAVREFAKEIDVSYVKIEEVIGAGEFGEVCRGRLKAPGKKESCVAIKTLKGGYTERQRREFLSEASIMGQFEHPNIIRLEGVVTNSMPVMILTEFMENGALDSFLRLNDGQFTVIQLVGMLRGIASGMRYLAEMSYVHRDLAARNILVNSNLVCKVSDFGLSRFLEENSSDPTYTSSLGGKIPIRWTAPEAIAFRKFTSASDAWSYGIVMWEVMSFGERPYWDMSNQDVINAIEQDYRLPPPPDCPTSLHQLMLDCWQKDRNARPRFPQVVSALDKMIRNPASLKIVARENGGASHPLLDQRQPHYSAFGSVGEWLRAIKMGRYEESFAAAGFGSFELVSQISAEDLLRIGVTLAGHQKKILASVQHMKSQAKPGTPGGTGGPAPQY
Chain of PDGFRa (P16234 24-1089): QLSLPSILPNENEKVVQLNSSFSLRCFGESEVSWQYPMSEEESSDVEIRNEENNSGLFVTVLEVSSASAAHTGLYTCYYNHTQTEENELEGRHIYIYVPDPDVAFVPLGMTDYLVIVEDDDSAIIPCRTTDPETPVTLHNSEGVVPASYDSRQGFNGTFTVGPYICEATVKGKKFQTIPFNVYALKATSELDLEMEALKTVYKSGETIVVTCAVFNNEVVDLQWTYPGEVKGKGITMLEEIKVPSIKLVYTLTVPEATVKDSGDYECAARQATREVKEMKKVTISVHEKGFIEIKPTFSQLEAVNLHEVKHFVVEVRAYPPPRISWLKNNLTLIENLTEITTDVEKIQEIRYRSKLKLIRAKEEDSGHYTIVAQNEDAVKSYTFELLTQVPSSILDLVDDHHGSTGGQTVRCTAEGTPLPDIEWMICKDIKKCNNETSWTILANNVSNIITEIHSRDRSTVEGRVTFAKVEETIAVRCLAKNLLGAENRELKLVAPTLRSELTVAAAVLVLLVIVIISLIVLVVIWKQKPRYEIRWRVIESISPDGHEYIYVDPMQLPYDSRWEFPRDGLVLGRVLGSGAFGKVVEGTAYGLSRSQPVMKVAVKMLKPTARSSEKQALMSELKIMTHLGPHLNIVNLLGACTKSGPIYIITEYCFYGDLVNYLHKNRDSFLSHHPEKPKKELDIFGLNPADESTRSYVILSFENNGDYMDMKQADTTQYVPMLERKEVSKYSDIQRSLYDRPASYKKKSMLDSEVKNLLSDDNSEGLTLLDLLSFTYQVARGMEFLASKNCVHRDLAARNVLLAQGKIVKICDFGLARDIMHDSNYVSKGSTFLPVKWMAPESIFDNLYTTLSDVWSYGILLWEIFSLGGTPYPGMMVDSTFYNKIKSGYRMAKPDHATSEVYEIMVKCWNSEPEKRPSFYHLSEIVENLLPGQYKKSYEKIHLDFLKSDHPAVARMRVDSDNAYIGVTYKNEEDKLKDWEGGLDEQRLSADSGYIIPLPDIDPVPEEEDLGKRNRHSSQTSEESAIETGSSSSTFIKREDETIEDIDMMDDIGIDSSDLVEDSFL

## Cn1cc(-c2[nH]c3cc(NC(=O)[C@H](N)C4CCCCC4)cc4c3c2C=NNC4=O)cn1 [Compound 1]
[1]
  modulation of CHK2 activity: no evidence that CHK2 activity is modulated
[2]
  cell growth inhibition: 15%
[3]; Compound 1 540 nM (12×EC50) + camptothecin compared with camptothecin alone
  increase in cell kill: 21.7
[3]; Compound 1 540 nM (12×EC50) + gemcitabine compared with gemcitabine alone
  increase in cell kill: 31.2%
[4]
  MTD: 60 mg/kg
[5]
  IC50: 171 nM
[6]
  Ki: 8 nM
[7]
  IC50: > 10000 nM
[8]
  IC50: 117 nM
[9]
  EC50: 45 nM
[10]
  IC50: 10 nM
[11]
  Ki: 47 nM
[12]
  IC50: 420 nM
[13]
  IC50: 98 nM
[14]
  MTD: 40 mg/kg
[15]; Compound 1 alone compared with control (untreated) cells
  effect on cell viability: no significant effect on cell viability
[15]; combination with gemcitabine compared with gemcitabine alone
  potentiation of gemcitabine cytotoxicity: 89%
[16]
  IC50: 9200 nM
[17]
  IC50: 14 nM
[18]
  IC50: 23 nM
[19]
  IC50: 1980 nM
[20]
  IC50: 25 nM
[21]
  IC50: 1300 nM
[22]
  IC50: 1600 nM
[23]
  IC50: 929 nM
[24]
  IC50: 1270 nM
[25]
  IC50: 2810 nM
[26]
  IC50: 442 nM
[27]
  IC50: 621 nM
[28]
  cell growth inhibition: 44%
